The test system of data set [1] is Cell membrane. In words: Disruption of membrane integrity in methicillin-resistant Staphylococcus aureus 15 assessed as increase in fluorescence intensity at 32 ug/ml measured immediately by Sytox green based fluorescence method. The format is subcellular. The conditions noted are these: dose 32.0 µg/ml.
Data set [2] concerns Cell membrane. In words: Induction of membrane depolarization in methicillin-resistant Staphylococcus aureus 15 assessed as increase in fluorescence intensity at 32 ug/ml by DiSC3-5 dye based fluorescence method. The format is subcellular. The following applies: dose 32.0 µg/ml.
The subject of data set [3] is Staphylococcus aureus. The experiment in a line: Antibacterial activity against Staphylococcus aureus ATCC 29213 assessed as inhibition of bacterial growth incubated for 16 to 20 hrs by CLSI based microdilution method. The class given is functional. The conditions noted are these: time 16-20 hrs.
A further data set concerns Enterococcus faecalis. The experiment in a line: Antibacterial activity against Enterococcus faecalis ATCC 29212 assessed as inhibition of bacterial growth incubated for 16 to 20 hrs by CLSI based microdilution method. The format is functional. The conditions noted are these: time 16-20 hrs. Background: In broth dilution the organism is exposed to a series of concentrations in liquid medium.

The test system of the next data set is Micrococcus luteus. In words: Antibacterial activity against Micrococcus luteus assessed as inhibition of bacterial growth incubated for 16 to 20 hrs by CLSI based microdilution method. The format is functional. The following applies: time 16-20 hrs.
For the next data set, the system named is Escherichia coli. The experiment in a line: Antibacterial activity against Escherichia coli ATCC 25922 assessed as inhibition of bacterial growth incubated for 16 to 20 hrs by CLSI based microdilution method. The format is functional. The conditions noted are these: time 16-20 hrs.
Data set [4] deals with Salmonella enterica. The experiment in a line: Antibacterial activity against Salmonella enterica H9812 assessed as inhibition of bacterial growth incubated for 16 to 20 hrs by CLSI based microdilution method. The format is functional. The following applies: time 16-20 hrs.
Data set [5] relates to Salmonella enterica. In words: Antibacterial activity against Salmonella enterica 8389 assessed as inhibition of bacterial growth incubated for 16 to 20 hrs by CLSI based microdilution method. The class given is functional. The conditions noted are these: time 16-20 hrs.
Data set [6] is described as follows: Hemolytic activity in sheep RBC incubated for 1 hr by absorbance based analysis. The class given is toxicity, cell-based, Ovis aries, Erythrocyte. The conditions noted are these: sheep red blood cells.
A short description of data set [7]: Selectivity index, ratio of HC50 for hemolytic activity in sheep RBC to MIC for antibacterial activity against Staphylococcus aureus ATCC 29213. The conditions noted are these: sheep red blood cells. The format is toxicity.
In data set [8] the test system is Staphylococcus aureus. In words: Bactericidal activity against methicillin-resistant Staphylococcus aureus 15 at 4 to 8 times MIC measured at 24 hrs by time kill assay. The class given is functional, organism-based.
Data set [9] has as its system Staphylococcus aureus. The experiment in a line: Inhibition of biofilm formation in Staphylococcus aureus ATCC 29213 at 64 ug/ml incubated for 24 hrs by crystalline violet staining based analysis. The format is functional. The following applies: dose 64.0 µg/ml.
The test system of data set [10] is Staphylococcus aureus. The experiment in a line: Inhibition of biofilm formation in methicillin-resistant Staphylococcus aureus 15 at 64 ug/ml incubated for 24 hrs by crystalline violet staining based analysis. The class given is functional. The following applies: dose 64.0 µg/ml.
Data set [11] deals with Staphylococcus aureus. The experiment in a line: Inhibition of biofilm formation in methicillin-resistant Staphylococcus aureus 15 assessed as destruction of formed biofilm at 128 ug/ml incubated for 24 hrs by crystal violet staining based analysis relative to control. The format is functional.
Data set [12] has as its system Staphylococcus aureus. In words: Induction of drug resistance in Staphylococcus aureus ATCC 29213 assessed as increase in MIC at 0.5 times MIC measured after 2 days by CLSI based microdilution method. The conditions noted are these: time 2.0 day. The format is functional, organism-based.

In brackets after ≈: the same amount, converted by molar mass. Activity calls are given as the source filed them. The calls are words filed in the database; no cut-off is given here. A value given as a limit tells only on which side of the number the result lay.

As a reminder, the MIC is the lowest concentration found to suppress growth. For orientation: HC50 means the concentration giving 50% haemolysis. What is called inhibition is the relative decrease from the control value, in per cent.

Regarding `CC[C@H](C)[C@H](NC(=O)CN)C(=O)NCC(=O)N[C@@H](C)C(=O)N[C@H](C(=O)N[C@@H](CC(C)C)C(=O)N[C@@H](CCCCN)C(=O)N[C@H](C(=O)N[C@@H](CC(C)C)C(=O)N[C@H](C(=O)N[C@H](C(=O)NCC(=O)N[C@@H](CC(C)C)C(=O)N1CCC[C@H]1C(=O)N[C@@H](C)C(=O)N[C@@H](CC(C)C)C(=O)N[C@H](C(=O)N[C@@H](CO)C(=O)N[C@@H](Cc1c[nH]c2ccccc12)C(=O)N[C@H](C(=O)N[C@@H](CCCCN)C(=O)N[C@@H](CCCNC(=N)N)C(=O)N[C@@H](CCCCN)C(=O)N[C@@H](CCCNC(=N)N)C(=O)N[C@@H](CCC(N)=O)C(=O)N[C@@H](CCC(N)=O)C(N)=O)[C@@H](C)CC)[C@@H](C)CC)[C@@H](C)O)[C@@H](C)O)C(C)C)C(C)C`, the result in the data set with Cell membrane [1] and with Cell membrane [2] was Active.
With `C=CCc1cccc(Oc2ccc(C(=O)CC)cc2)c1OCCCC[N+](C)(C)CC(=O)N1CCOCC1.[Br-]`, the minimal inhibitory concentration (MIC) in the data set on Staphylococcus aureus [3] was 64 µg/mL; with Enterococcus faecalis, 64 µg/mL; with Micrococcus luteus, 64 µg/mL; in the data set on Escherichia coli, over 128 µg/mL; in the data set on Salmonella enterica [4], over 128 µg/mL; in the data set on Salmonella enterica [5], over 128 µg/mL. For the same compound, in [6], the HC50 at 1 h stood at 578 µg/mL. In addition, in [7], the selectivity ratio came out at 9.
Consider `C=CCc1cccc(Oc2ccc(C(=O)CC)cc2)c1OCCCC[N+](C)(C)CC(=O)NCCCCCC.[Br-]`, for which the minimum inhibitory concentration (MIC) came to 4 µg/mL with Staphylococcus aureus [3]; 16 µg/mL in the data set with Enterococcus faecalis; 64 µg/mL in the data set on Micrococcus luteus; 32 µg/mL in the data set on Escherichia coli; 32 µg/mL with Salmonella enterica [4]; 64 µg/mL in the data set with Salmonella enterica [5]. In [6], this compound displayed a concentration for 50% haemolysis (HC50) at 1 h of 642 µg/mL. Further, the selectivity ratio in data set [7] was determined as 160.
Take `CN[C@H](CC(C)C)C(=O)N[C@H]1C(=O)N[C@@H](CC(N)=O)C(=O)N[C@H]2C(=O)N[C@H]3C(=O)N[C@H](C(=O)N[C@H](C(=O)O)c4cc(O)cc(O)c4-c4cc3ccc4O)[C@H](O)c3ccc(c(Cl)c3)Oc3cc2cc(c3O[C@@H]2O[C@H](CO)[C@@H](O)[C@H](O)[C@H]2O[C@H]2C[C@](C)(N)[C@H](O)[C@H](C)O2)Oc2ccc(cc2Cl)[C@H]1O` [VANCOMYCIN]: the MIC in the data set on Enterococcus faecalis was 1 µg/mL (≈ 0.69 µM); with Micrococcus luteus, 2 µg/mL (≈ 1.38 µM). For the same compound, the result in the data set with Staphylococcus aureus [8] was inactive. Further, the inhibition entry in the data set on Staphylococcus aureus [9] and in the data set with Staphylococcus aureus [10] was “inactive” throughout. Besides, the inhibition at 128 µg/mL in the data set with Staphylococcus aureus [11] worked out at 60%.
For the compound `C=CCc1cccc(Oc2ccc(C(=O)CC)cc2)c1OCCC[N+](C)(C)CC(=O)NCCCC.[Br-]`, the minimal inhibitory concentration (MIC) in the data set with Staphylococcus aureus [3] is 8 µg/mL; in the data set on Enterococcus faecalis, 16 µg/mL; in the data set with Micrococcus luteus, 32 µg/mL; in the data set with Escherichia coli, 32 µg/mL; in the data set with Salmonella enterica [4] it was 64 µg/mL; in the data set on Salmonella enterica [5], 128 µg/mL. The same compound came in with an HC50 at 1 h in data set [6] of 507 µg/mL. Further, in data set [7], the selectivity ratio was determined as 63.3.
On to `C=CCc1cccc(Oc2ccc(C(=O)CC)cc2)c1OCC[N+](C)(C)CC(=O)NCCCCC.[Br-]`, for which the MIC in the data set with Staphylococcus aureus [3] came out at 8 µg/mL; with Enterococcus faecalis it was 16 µg/mL; in the data set on Micrococcus luteus, 16 µg/mL; in the data set with Escherichia coli it was 32 µg/mL; in the data set with Salmonella enterica [4], 64 µg/mL; in the data set on Salmonella enterica [5], 64 µg/mL. For the same compound, in data set [6], the concentration for 50% haemolysis (HC50) at 1 h amounted to 1550 µg/mL. The selectivity ratio in [7] stood at 194.
`C=CCc1cccc(Oc2ccc(C(=O)CC)cc2)c1OCC[N+](C)(C)CC(=O)N1CCCC1.[Br-]`: the MIC with Staphylococcus aureus [3] is 32 µg/mL; in the data set with Enterococcus faecalis it was 64 µg/mL; in the data set on Micrococcus luteus it was 32 µg/mL; in the data set on Escherichia coli, 128 µg/mL; in the data set with Salmonella enterica [4], 64 µg/mL; in the data set on Salmonella enterica [5] it was over 128 µg/mL. The 50% haemolytic concentration (HC50) at 1 h in data set [6] is 543 µg/mL. Moreover, in data set [7], the selectivity ratio was 17.
Consider `Br.C=CCc1cccc(Oc2ccc(C(=O)CC)cc2)c1OCCCCSC(=N)N`, for which the MIC is 16 µg/mL in the data set with Staphylococcus aureus [3]; 32 µg/mL with Enterococcus faecalis; 16 µg/mL in the data set with Micrococcus luteus; 32 µg/mL with Escherichia coli; 128 µg/mL in the data set with Salmonella enterica [4]; 64 µg/mL in the data set with Salmonella enterica [5]. The concentration for 50% haemolysis (HC50) at 1 h in [6] was 931 µg/mL. The selectivity ratio in [7] came out at 58.2.
Regarding `Br.C=CCc1cccc(Oc2ccc(C(=O)CC)cc2)c1OCCCSC(=N)N`, the MIC with Staphylococcus aureus [3] is 16 µg/mL; with Enterococcus faecalis, 64 µg/mL; in the data set with Micrococcus luteus, 32 µg/mL; in the data set with Escherichia coli, 32 µg/mL; in the data set with Salmonella enterica [4], 64 µg/mL; with Salmonella enterica [5], 64 µg/mL. The same compound came in with an HC50 at 1 h in [6] of 894 µg/mL. The selectivity ratio in data set [7] was found to be 55.8.
Turning to `C=CCc1cccc(Oc2ccc(C(=O)CC)cc2)c1OCCC[N+](C)(C)CC(=O)N(CC)CC.[Br-]`, the minimal inhibitory concentration (MIC) with Staphylococcus aureus [3] was determined as 32 µg/mL; with Enterococcus faecalis, 32 µg/mL; with Micrococcus luteus, 128 µg/mL; with Escherichia coli, 64 µg/mL; in the data set on Salmonella enterica [4], 32 µg/mL; with Salmonella enterica [5], 64 µg/mL. In data set [6], this compound gave a concentration for 50% haemolysis (HC50) at 1 h of 733 µg/mL. In data set [7], the selectivity ratio is 22.9.
For the compound `C=CCc1cccc(Oc2ccc(C(=O)CC)cc2)c1OCC[N+](C)(C)CC(=O)NCCCC.[Br-]`, the MIC worked out at 32 µg/mL with Staphylococcus aureus [3]; 64 µg/mL with Enterococcus faecalis; 64 µg/mL with Micrococcus luteus; 64 µg/mL in the data set on Escherichia coli; 64 µg/mL with Salmonella enterica [4]; 128 µg/mL with Salmonella enterica [5]. The HC50 at 1 h in data set [6] worked out at 1150 µg/mL. The selectivity ratio in [7] amounted to 35.9.
As for `C=CCc1cccc(Oc2ccc(C(=O)CC)cc2)c1OCCCC[N+](C)(C)CC(=O)N(CCC)CCC.[Br-]`, the MIC in the data set on Staphylococcus aureus [3] was 32 µg/mL; with Enterococcus faecalis it was 32 µg/mL; with Micrococcus luteus, 64 µg/mL; in the data set with Escherichia coli, 64 µg/mL; in the data set with Salmonella enterica [4], 128 µg/mL; with Salmonella enterica [5], 128 µg/mL. In addition, in [6], the HC50 at 1 h amounted to 933 µg/mL. In addition, in [7], the selectivity ratio was determined as 29.1.
Take `C=CCc1cccc(Oc2ccc(C(=O)CC)cc2)c1OCC[N+](C)(C)CC(=O)N(CC)CC.[Br-]`: the MIC in the data set with Staphylococcus aureus [3] is 64 µg/mL; in the data set with Enterococcus faecalis, 64 µg/mL; in the data set with Micrococcus luteus, 32 µg/mL; in the data set on Escherichia coli it was 128 µg/mL; in the data set with Salmonella enterica [4], over 128 µg/mL; with Salmonella enterica [5], over 128 µg/mL. This compound came in with a 50% haemolytic concentration (HC50) at 1 h in data set [6] of 690 µg/mL. In data set [7], the selectivity ratio was 10.8.
On to `CCn1cc(C(=O)O)c(=O)c2cc(F)c(N3CCNCC3)cc21`, for which, in the data set with Staphylococcus aureus [12], the outcome was Active.

Values taken from ChEMBL document CHEMBL5236634, “Membrane-Targeting Neolignan-Antimicrobial Peptide Mimic Conjugates to Combat Methicillin-Resistant Staphylococcus aureus (MRSA) Infections” (J Med Chem, 2022).
